Data from patent US9090617B1, “Agonists of Src homology-2 containing protein tyrosine phosphatase-1 and treatment methods using the same” (National Taiwan University, priority 2011, dated 2015).
“Also recorded” adds a separate entry of the source. Where two headings read alike, the source gives them in different places.

Experiments:
[1] = system: HCC cells; assay: cells; settings: 72 h
Excerpt: Points, mean; bars, SD (n=6).
Points, mean; bars, SD ([…]). […] The N-SH2 domain is in orange, the C-SH2 domain is in marine, the PTP domain is in hot pink, and the linkers between them are in gray. […] ELISA, enzyme-linked immunosorbent assay.

[2] = system: PLC5 tumors; assay: Subcutaneous PLC5 xenograft; type: in vivo, mice; settings: for average tumor size versus control mice at the end of treatment: SC PLC5 tumor-bearing mice
Experimental: All experimental procedures using these mice were done in accordance with protocols approved by the Institutional Laboratory Animal Care and Use Committee of National Taiwan University. Each mouse was inoculated s.c. in the dorsal flank with 1×10^6 PLC5 cells suspended in 0.1 mL of serum-free medium containing 50% Matrigel (BD Biosciences). When tumors reached 100 to 200 mm3, mice received SC-40 tosylate (10 or 20 mg/kg) orally once daily. Tumors were measured weekly using calipers, and their volumes were calculated using the following standard formula: width×length×height×0.52.
(§1) We established an HCC orthotopic model using luc2-expressed PLC5 cells inoculated into liver of nude mice. […] To further correlate the molecular mechanism with the anticancer effect in vivo, p-STAT3 and SHP-1 activity in tumor extract from vehicle- and SC-treated mice was analyzed by immunoblotting. […] The pharmacokinetics of SC-43 was determined (FIG. 25E).

[3] = system: p-STAT3, cyclin D1, survivin, Mc1-1; assay: Western blot of STAT3-related proteins in HCC cells; type: cell-based; settings: HCC cells, 24 h
Experimental: Cells were treated with various compounds at 5 and 10 μM for 24 h. Cell lysates were analyzed by western blot.
HCC cells treated with SC-43 (10 μM for 24 h) were collected with RIPA lysis buffer. Antibodies for immunoblotting such as cyclin D1 was purchased from Santa Cruz Biotechnology. Other antibodies such as survivin, phospho-STAT3 (Tyr705), STAT3, Mc1-1, SOCS1, and SOCS3 were from Cell Signaling.

[4] = target: T1, SHP-1 (Homo sapiens, UniProt P29350); assay: Phosphatase activity of SHP-1 immunoprecipitated from PLC5 cells, incubated with compound in vitro; type: biochemical; set-up: PLC5 protein extract was incubated with anti-SHP-1 antibody in immunoprecipitation buffer overnight; endogenous in cells; host or cells: PLC5 (PLC/PRF/5)
Experimental: PLC5 protein extract was incubated with anti-SHP-1 antibody in immunoprecipitation buffer overnight. Protein G Sepharose 4 Fast flow (GE Healthcare Bio-Science) was added to each sample, followed by incubation for 3 hours at 4° C. with rotation. […] RediPlate 96 EnzChek Tyrosine Phosphatase Assay kit (R-22067) was used for SHP-1 activity assay (Molecular Probes).

[5] = system: HCC cells; assay: Apoptosis analysis by flow cytometry (sub-G1); type: cell-based; settings: for apoptosis (sub-G1): HCC cells, 24 h
Experimental: Apoptotic cells were measured by flow cytometry (sub-G1). After treatment with various compounds, cells were trypsinized, collected by centrifugation and resuspended in PBS. After centrifugation, the cells were washed in PBS and resuspended in […] (PI) staining solution. Specimens were incubated in the dark for 30 min at 37° C. and then analyzed with an EPICS Profile II flow cytometer (Coulter Corp., Hialeah, Fla.). All experiments were performed in triplicate
Collected cells were fixed in 75% Ethanol and stained with 20 ug/ml Propidium Iodide (PI). Sub-G1 analysis was performed by flow-cytometry. […] Points, mean; bars, SD (n=6).

[6] = target: T1, SHP-1; assay: Phosphatase activity of recombinant SHP-1; type: biochemical; settings: 25 ng protein, 30 minutes
Experimental: RediPlate 96 EnzChek Tyrosine Phosphatase Assay kit (R-22067) was used for SHP-1 activity assay (Molecular Probes). Recombinant SHP-1 protein (25 ng) was incubated with either SC-43 or SC-40 at the indicated dose for 30 minutes and then analyzed by SHP-1 phosphatase activity.

[7] = system: phospho-STAT3 (Tyr705); assay: Phospho-STAT3 (Tyr705) sandwich ELISA; type: cell-based; settings: for p-STAT3 / STAT3 activity (phospho-STAT3 ELISA and luciferase reporter): PLC5 cells
Experimental: A PathScan Phospho-Stat3 (Tyr705) Sandwich ELISA Kit was used for the detection of phospho-STAT3 (Cell Signaling, Danvers, Mass.). Cells were pre-treated with IL-6 1 ng/ml and then exposed with various compounds at 10 μM for 24 h. After incubation with cell lysates, both non-phospho- and phospho-Stat3 proteins are captured by the coated antibody. The expression of phospho-STAT3 was measured at 450 nm absorbance.
The decreased level of P-STAT3 induced by these derivatives was correlated with cell toxicity. In the other words, these derivatives induced cell death in part through inhibition of STAT3.
We also assayed the activation status of p-STAT3 by STAT3 ELISA. […] SC-1 or sorafenib-treated cell extracts were incubated with antibody against phosphorylated STAT3 at Y705. […] To evaluate the transcriptional activity, STAT3-binding region was cloned into Luc reporter. […] The firefly luciferase activity was evaluated and normalized by Renilla luciferase.
p-STAT3 activity: PLC5 cells treated with SC derivatives were collected in RIPA buffer and analyzed in p-STAT3 ELISA kit. The assay protocol follows the manufacturer.

[8] = system: PLC5/luc2 orthotopic tumors; assay: HCC orthotopic model with PLC5/luc2 cells; type: in vivo, mice; settings: 10 mg/kg/day orally
Experimental: All experimental procedures using these mice were done in accordance with protocols approved by the Institutional Laboratory Animal Care and Use Committee of National Taiwan University. Each mouse was inoculated within liver […] with 1×10^4 PLC5/luc cells suspended in 0.1 mL of serum-free medium containing 50% Matrigel (BD Biosciences). […] Tumor growth was monitored by non-invasive in vivo imaging system (IVIS) image system twice weekly.
as §1

[9] = system: STAT3; assay: STAT3 luciferase reporter assay; type: cell-based; settings: 10 μM, 24 h
Experimental: Cells were seeded in 96-well plate and pre-treated with IL-6 at the dose […] for 30 min. The STAT3 reporter kit was purchased from SABiosciences (Frederick, Md.).
STAT3 reporter assay: PLC5 cells were seeded in a 96-well plate. Cells were pretransfected with STAT3 reporter construct for 24 h and treated with derivatives for another 24 h. The STAT3 Reporter Kit was purchased from SABiosciences.

[10] = system: Huh-7 xenograft tumor; assay: Huh-7 xenograft with SC-59 or sorafenib and radiation; type: in vivo, mice; settings: 10 mg/kg p.o. once daily plus 5 Gy radiation for 4 days
Experimental: (A) The effects of SC-59 and radiation on tumor growth. Each mouse was inoculated subcutaneously in the right leg with […] Huh-7 cells suspended in Matrigel. When the tumor reached a volume of 400-600 mm3, mice received vehicle, 5 Gy radiation (one fraction per day) for 4 days, or 10 mg/kg SC-59 p.o. once daily, or a combination for the duration of the study. The data points indicate the mean values (n=6) and the bars indicate the standard error. There were significant differences between the combined treatment group and the vehicle control group (*, P<0.05, **, P<0.01). (B) Left, the expression of P-STAT3 in the Huh-7 tumors was analyzed by western blot. Right, quantified data for p-STAT3 to STAT3. (C) The activity of SHP-1 in Huh-7 tumors. Values are means±SD, *, P<0.05. (D) Body weight of mice after SC-59 and RT treatment. […] The data points indicate the mean values (n=6) and the bars indicate the standard error. […] (H) Body weight of mice treated with vehicle, RT, sorafenib, and combination.
To further elucidate the molecular events responsible for this synergistic effect, we examined the expression level of p-STAT3 in the tumor extract.

[11] = target: T2, JAK2 (Homo sapiens, UniProt O60674); assay: JAK2 kinase activity; type: cell-based; settings: PLC5 cells, 10 μM, 24 h
T2 construct: endogenous in cells; host or cells: PLC5
Excerpt: (§2) The RediPlate 96 EnzChek® Tyrosine Phosphatase Assay Kit (R-22067) was used for SHP-1 activity assay (Molecular Probes, Carlsbad, Calif.). The Raf-1 kinase cascade assay kit (Upstate-Millipore, Billerica, Mass.) was used to examine the Raf-1 kinase activity. The JAK2 kinase activity kit was purchased from Reaction Biology Corp. (Malvern, Pa.).

[12] = system: Huh-7 tumors; settings: for SHP-1 activity in Huh-7 tumors: tumor extract
Experimental: Male NCr athymic nude mice (5-7 weeks of age) were obtained from the National Laboratory Animal Center (Taipei, Taiwan). All experimental procedures using these mice were performed in accordance with protocols approved by National Taiwan University. […] Controls received vehicle (Chen K F et al. Cancer Res. 2008; 68:6698-6707).

[13] = system: PLC5 cells; assay: MTT assay for cell growth inhibition in PLC5 cells; type: cell-based
Experimental: These compounds were analyzed by MTT assay for cell growth inhibition in the PLC5 cells.
Next, we changed the pyridine to a quinoline ring and amide linker to generate compounds 12-25. These compounds were also analyzed by MTT assay for cell growth inhibition in the PLC5 cells.

[14] = target: T3, Raf-1 (Homo sapiens, UniProt P04049); assay: Raf-1 kinase activity in lysates of treated cells; type: cell-based
T3 construct: Raf-1 immunoprecipitated from PLC5 cell extracts was incubated with MEK recombinant protein; endogenous in cells; host or cells: PLC5
Excerpt: as §2

[15] = target: T4, VEGFR1 (Homo sapiens, UniProt P17948); assay: VEGFR1 activity in HUVEC cells; type: cell-based; settings: 24 h
T4 construct: we tested the effect of SC-49 on the activity of VEGFR1 in HUVEC cells; endogenous in cells; host or cells: HUVEC
Excerpt: To further investigate the effect of SC-49 on angiogenesis, we tested the effect of SC-49 on the activity of VEGFR1 in HUVEC cells.

T1 sequence (P29350 whole entry): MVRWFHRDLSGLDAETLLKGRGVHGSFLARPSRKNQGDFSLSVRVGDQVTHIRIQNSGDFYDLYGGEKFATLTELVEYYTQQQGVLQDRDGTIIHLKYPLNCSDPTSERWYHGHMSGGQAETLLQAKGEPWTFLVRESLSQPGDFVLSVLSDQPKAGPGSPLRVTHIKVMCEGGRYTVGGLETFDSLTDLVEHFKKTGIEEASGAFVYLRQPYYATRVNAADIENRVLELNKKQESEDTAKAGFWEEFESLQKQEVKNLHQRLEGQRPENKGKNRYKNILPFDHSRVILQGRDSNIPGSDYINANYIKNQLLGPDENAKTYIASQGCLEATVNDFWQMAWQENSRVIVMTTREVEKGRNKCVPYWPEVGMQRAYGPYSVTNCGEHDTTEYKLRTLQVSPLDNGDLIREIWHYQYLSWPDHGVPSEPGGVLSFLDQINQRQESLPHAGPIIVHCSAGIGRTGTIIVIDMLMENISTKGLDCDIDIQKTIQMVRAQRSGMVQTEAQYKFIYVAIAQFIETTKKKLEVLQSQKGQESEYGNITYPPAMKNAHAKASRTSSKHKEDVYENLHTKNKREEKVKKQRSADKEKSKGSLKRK
T3 sequence (P04049 whole entry): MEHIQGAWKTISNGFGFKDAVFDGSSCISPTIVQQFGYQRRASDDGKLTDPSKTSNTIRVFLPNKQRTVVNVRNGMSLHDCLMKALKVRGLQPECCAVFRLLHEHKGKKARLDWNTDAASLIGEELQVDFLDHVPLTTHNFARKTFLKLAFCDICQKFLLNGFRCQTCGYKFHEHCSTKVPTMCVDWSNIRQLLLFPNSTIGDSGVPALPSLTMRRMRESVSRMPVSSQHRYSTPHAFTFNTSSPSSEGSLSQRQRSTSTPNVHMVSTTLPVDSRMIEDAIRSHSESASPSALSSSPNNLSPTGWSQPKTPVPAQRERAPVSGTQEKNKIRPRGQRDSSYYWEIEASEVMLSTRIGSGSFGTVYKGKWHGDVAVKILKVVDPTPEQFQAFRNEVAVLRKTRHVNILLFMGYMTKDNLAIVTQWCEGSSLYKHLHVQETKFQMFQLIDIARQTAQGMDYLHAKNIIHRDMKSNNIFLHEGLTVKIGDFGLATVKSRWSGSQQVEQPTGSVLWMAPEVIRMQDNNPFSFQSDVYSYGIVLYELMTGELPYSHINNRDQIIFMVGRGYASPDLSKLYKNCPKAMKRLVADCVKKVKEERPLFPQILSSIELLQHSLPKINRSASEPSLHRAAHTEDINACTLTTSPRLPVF
T2 sequence (O60674 whole entry): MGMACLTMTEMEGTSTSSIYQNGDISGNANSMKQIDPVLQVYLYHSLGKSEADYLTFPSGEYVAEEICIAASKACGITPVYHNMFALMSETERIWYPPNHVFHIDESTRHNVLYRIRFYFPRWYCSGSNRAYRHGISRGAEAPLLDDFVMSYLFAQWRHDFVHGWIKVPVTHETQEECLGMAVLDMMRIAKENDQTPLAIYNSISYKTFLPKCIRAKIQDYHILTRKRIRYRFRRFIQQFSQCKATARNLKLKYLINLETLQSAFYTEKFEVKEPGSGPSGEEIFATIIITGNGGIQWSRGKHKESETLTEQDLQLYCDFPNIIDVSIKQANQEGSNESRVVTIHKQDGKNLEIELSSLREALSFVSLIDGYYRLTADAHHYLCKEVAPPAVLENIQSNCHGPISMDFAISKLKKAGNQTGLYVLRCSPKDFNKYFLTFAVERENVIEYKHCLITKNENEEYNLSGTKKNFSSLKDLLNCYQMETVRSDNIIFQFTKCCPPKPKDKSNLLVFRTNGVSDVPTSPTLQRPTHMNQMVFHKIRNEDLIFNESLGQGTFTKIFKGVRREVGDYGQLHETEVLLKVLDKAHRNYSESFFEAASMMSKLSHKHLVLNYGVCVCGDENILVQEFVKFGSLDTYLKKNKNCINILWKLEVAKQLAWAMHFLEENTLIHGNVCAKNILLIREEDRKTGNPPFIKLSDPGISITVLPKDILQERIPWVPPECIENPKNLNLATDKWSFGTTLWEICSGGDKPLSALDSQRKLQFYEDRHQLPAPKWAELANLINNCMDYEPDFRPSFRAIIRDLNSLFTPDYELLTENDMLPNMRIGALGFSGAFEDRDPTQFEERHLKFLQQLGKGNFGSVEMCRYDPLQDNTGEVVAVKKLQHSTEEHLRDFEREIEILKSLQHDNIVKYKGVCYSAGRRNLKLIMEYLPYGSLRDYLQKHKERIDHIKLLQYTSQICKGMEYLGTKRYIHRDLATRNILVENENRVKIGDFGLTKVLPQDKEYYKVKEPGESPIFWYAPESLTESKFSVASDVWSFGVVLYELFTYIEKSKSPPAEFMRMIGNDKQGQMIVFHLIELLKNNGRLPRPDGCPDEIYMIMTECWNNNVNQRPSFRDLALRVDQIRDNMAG
T4 sequence (P17948 27-1338): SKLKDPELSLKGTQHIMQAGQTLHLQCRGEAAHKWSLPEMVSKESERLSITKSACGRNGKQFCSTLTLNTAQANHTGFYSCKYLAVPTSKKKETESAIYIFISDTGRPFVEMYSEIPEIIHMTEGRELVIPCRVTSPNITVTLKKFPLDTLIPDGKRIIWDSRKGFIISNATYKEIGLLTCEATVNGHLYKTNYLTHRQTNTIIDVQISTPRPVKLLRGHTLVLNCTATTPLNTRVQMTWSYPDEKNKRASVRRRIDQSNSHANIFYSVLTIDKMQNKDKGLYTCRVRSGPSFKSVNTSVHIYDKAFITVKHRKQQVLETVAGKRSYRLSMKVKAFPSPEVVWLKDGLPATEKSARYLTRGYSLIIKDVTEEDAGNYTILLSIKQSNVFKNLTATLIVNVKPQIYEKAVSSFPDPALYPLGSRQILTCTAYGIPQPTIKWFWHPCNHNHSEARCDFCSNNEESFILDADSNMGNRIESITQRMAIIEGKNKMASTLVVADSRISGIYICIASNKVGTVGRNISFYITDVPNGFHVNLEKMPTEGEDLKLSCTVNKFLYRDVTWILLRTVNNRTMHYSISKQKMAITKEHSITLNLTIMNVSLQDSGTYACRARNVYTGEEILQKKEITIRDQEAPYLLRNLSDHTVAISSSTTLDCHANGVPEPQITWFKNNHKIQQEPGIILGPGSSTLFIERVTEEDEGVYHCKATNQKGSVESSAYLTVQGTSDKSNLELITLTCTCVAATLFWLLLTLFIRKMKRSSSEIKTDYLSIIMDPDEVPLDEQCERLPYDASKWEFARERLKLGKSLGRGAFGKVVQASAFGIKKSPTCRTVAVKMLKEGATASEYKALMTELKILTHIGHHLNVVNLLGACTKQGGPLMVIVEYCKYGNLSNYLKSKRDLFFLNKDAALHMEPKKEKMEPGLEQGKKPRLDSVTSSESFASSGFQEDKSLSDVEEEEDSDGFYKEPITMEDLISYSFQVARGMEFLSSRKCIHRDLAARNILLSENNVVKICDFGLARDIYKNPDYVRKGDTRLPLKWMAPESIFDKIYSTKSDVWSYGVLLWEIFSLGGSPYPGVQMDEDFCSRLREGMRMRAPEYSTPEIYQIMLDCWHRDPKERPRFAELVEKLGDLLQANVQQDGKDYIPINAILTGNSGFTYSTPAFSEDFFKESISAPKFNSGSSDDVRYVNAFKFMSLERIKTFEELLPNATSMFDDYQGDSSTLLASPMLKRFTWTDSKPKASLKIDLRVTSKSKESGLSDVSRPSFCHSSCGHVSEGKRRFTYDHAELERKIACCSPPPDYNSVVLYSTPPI

Nc1cc(Oc2cccc(NS(=O)(=O)c3cccc(C(F)(F)F)c3)c2)ccc1[N+](=O)[O-] [SC-40, N-(3-(trifluoromethyl)benzene-sulfonyl)-3-(3-amino-4-nitrophenoxy)benzenamine]
viability of HCC cells / cytotoxicity [1]: showed lower 50% inhibitory concentration, compared to sorafenib
p-STAT3 and SHP-1 activity in PLC5 tumor lysate ([2]; 10 mg/kg/day orally): Down-regulation of p-STAT3 and elevation of SHP-1 activity
body weight of the animals ([2]; PLC5 xenograft, 10 or 20 mg/kg orally once daily): do not affect body weight of the animals
average tumor size versus control mice at the end of treatment ([2]; 10 mg/kg/day orally): less than half that of control mice
antitumor effect on PLC5 tumors ([2]; SC-40 tosylate 10 or 20 mg/kg orally once daily): has significant anti-tumor effect on PLC5 tumors
p-STAT3 and STAT3-related proteins (Western blot) [3]: down-regulates phospho-STAT3-related signaling pathway in HCC
phosphatase activity of SHP-1 in vitro ([4]; SHP-1-containing PLC5 extract, 10 or 100 nmol/L, 30 min, 4° C.): increase phosphatase activity of SHP-1 in vitro
apoptosis (sub-G1) [5]: show significant anti-cancer effects in HCC cells
apoptosis in sorafenib-resistant cells ([5]; sorafenib-resistant HCC cells (SR1)): resulted in significant apoptosis in sorafenib-resistant cells at submicromolar concentrations
phosphatase activity of recombinant SHP-1 [6]: increase phosphatase activity of SHP-1 in vitro
p-STAT3 / STAT3 activity (phospho-STAT3 ELISA and luciferase reporter) [7]: induce strong inhibition of p-STAT3 activity; also recorded: showed more potent inhibition of the p-STAT3-related signaling pathway

Cc1ccc(NC(=O)Nc2ccc(C)c(Oc3ccc(C#N)cc3)c2)cc1Oc1ccc(C#N)cc1 [SC-60, 1,3-bis(3-(4-cyanophenoxy)-4-methylphenyl)urea]
average tumor size versus control mice at the end of treatment ([2]; 10 mg/kg/day orally): less than half of those of control mice
p-STAT3 and STAT3-related proteins (Western blot) [3]: downregulated phospho-STAT3 (p-STAT3) at tyrosine 705 in a dose-dependent manner
anti-HCC effect and survival in orthotopic model [8]: displayed significant survival benefits compared with mice treated with vehicle or sorafenib
p-STAT3 / STAT3 activity (phospho-STAT3 ELISA and luciferase reporter) [7]: showed significant inhibition of STAT3 activity

CNC(=O)c1cc(Oc2ccc(NC(=O)Nc3ccc(Cl)c(C(F)(F)F)c3)cc2)ccn1 [Sorafenib, reference compound]
viability of HCC cells / cytotoxicity ([1]; HCC cell lines, MTT): decreased the viability of various HCC cells
transcription activity of STAT3 (Luc reporter) [9]: transcription activity of STAT3 was significantly decreased
p-STAT3 and STAT3-related proteins (Western blot) [3]: down-regulated p-STAT3 at Y705 residue and suppressed Mc1-1 and cyclin D1
activity of SHP-1 in SHP-1 immunoprecipitates incubated with drug ([4]; PLC5 lysates, incubated 6 hours): increase the activity of SHP-1
tumor growth with radiotherapy combination [10]: did not display a better synergistic effect when used in combination with radiotherapy
kinase activity of JAK2 [11]: neither sorafenib nor SC-1 altered the kinase activity of JAK2
Huh-7 tumor size / growth versus control ([12]; 10 mg/kg/day orally): less than half that of control mice
body weight or toxicity ([12]; mouse, in vivo, po, 10 mg/kg/day): no apparent differences in body weight or toxicity
SHP-1 activity in Huh-7 tumors [12]: showed significant induction of SHP-1 activity in vivo
SHP-1 activity in Huh-7 tumors ([12]; listed as sorafenib): enhanced the activity of SHP-1 in Huh-7 tumours
apoptosis (sub-G1) [5]: showed a significant increase in sub-G1 phase population
IC50 [13]: 8.3 µM
inhibition at 5 µM ([14]; PLC5, read-out: inhibition of Raf-1 kinase activity of the untreated cells): 50%
reduction in Raf-1 kinase activity ([14]; Raf-1 immunoprecipitated from PLC5 or Hep3B cell extracts, 10 μM, 24 h): 20-40%
activity of VEGFR1 [15]: significantly inhibited the activity of VEGFR1 in HUVEC cells
activity of p-STAT3 by STAT3 ELISA ([7]; Sk-Hep1 cells pre-treated with IL-6, 24 h): decreased the activity of p-STAT3 significantly
